Earlier results, collected in patent US20250339366A1, “AN ORODISPERSIBLE TABLET OF RIVAROXABAN” (INTAS PHARMACEUTICALS LTD., priority 2022, published 2025).

- Solubility in water: practically insoluble in water
Compound: O=C(NC[C@H]1CN(c2ccc(N3CCOCC3=O)cc2)C(=O)O1)c1ccc(Cl)s1 [Rivaroxaban, 5-Chloro-N-({(5S)-2-oxo-3-[4-(3-oxo-4-morpholinyl)phenyl]-1,3-oxzolidin-5-yl}methyl)-2-thiophene-carboxamide]
